Values of other authors, collected in patent US20050215455A1, “Surfactants in powdered form that can be used in tablets or gelatin capsules; preparation process and compositions containing them” (priority 2004, published 2005).
Converted amounts (≈) assume the structure as drawn.

For `Cn1c(=O)c2[nH]cnc2n(C)c1=O` [Theophylline], the Solubility in water is listed as 8 µg/mL (≈ 44.4 µM).
